Converted amounts (≈) assume the structure as drawn.
Legend:
Format in all cases: functional
[1] = tested on: Enterococcus faecalis; test: Antibacterial activity against vancomycin-resistant Enterococcus faecalis ATCC 51575
[2] = tested on: Candida albicans; test: Antifungal activity against Candida albicans ATCC 90028
[3] = tested on: Clostridium perfringens; test: Antibacterial activity against Clostridium perfringens ATCC 10388
[4] = tested on: Staphylococcus epidermidis; test: Antibacterial activity against methicillin-resistant Staphylococcus epidermidis ATCC 51625
[5] = Ratio of MIC for Candida albicans ATCC 90028 to MIC for methicillin-resistant Staphylococcus aureus ATCC 33591
[6] = tested on: Streptococcus pneumoniae; test: Antibacterial activity against Streptococcus pneumoniae ATCC 6301
[7] = tested on: Staphylococcus aureus; test: Antibacterial activity against methicillin-resistant Staphylococcus aureus ATCC 33591
[8] = tested on: Enterococcus faecium; test: Antibacterial activity against vancomycin-resistant Enterococcus faecium ATCC 700221
[9] = tested on: Staphylococcus epidermidis; test: Antibacterial activity against Staphylococcus epidermidis ATCC 12228
[10] = tested on: Staphylococcus aureus; test: Antibacterial activity against Staphylococcus aureus ATCC 29213
[11] = tested on: Bacteroides fragilis; test: Antibacterial activity against […] ATCC 23745
[12] = tested on: Bacillus cereus; test: Antibacterial activity against Bacillus cereus ATCC 11778
[13] = tested on: Bacillus subtilis; test: Antibacterial activity against Bacillus subtilis ATCC 23857
[14] = tested on: Staphylococcus aureus; test: Antibacterial activity against multidrug resistant Staphylococcus aureus BAA-39
[15] = Ratio of MIC for Candida albicans ATCC 90028 to MIC for vancomycin-resistant Enterococcus faecium ATCC 700221

## CC(C)NC(=N)c1ccc2cc(-c3ccc(Oc4ccc(-c5cc6ccc(C(=N)NC(C)C)cc6[nH]5)cc4)cc3)[nH]c2c1
[1]
  MIC: 0.25 µg/mL (≈ 0.44 µM)
[2]
  MIC: 0.5 µg/mL (≈ 0.879 µM)
[3]
  MIC: 0.5 µg/mL (≈ 0.879 µM)
[4]
  MIC: ≤ 0.06 µg/mL
[5]
  Ratio: 8
[6]
  MIC: ≤ 0.06 µg/mL
[7]
  MIC: ≤ 0.06 µg/mL
[8]
  MIC: ≤ 0.06 µg/mL
[9]
  MIC: ≤ 0.06 µg/mL
[10]
  MIC: 0.12 µg/mL (≈ 0.211 µM)
[11]
  MIC: 0.125 µg/mL (≈ 0.22 µM)
[12]
  MIC: ≤ 0.06 µg/mL
[13]
  MIC: ≤ 0.06 µg/mL
[14]
  MIC: ≤ 0.06 µg/mL

## N=C(c1ccc2[nH]c(-c3ccc(Oc4ccc(-c5nc6cc(C(=N)N7CCSCC7)ccc6[nH]5)cc4)cc3)nc2c1)N1CCSCC1
[1]
  MIC: 0.5 µg/mL (≈ 0.759 µM)
[2]
  MIC: 16 µg/mL (≈ 24.3 µM)
[3]
  MIC: 1 µg/mL (≈ 1.52 µM)
[4]
  MIC: 0.25 µg/mL (≈ 0.379 µM)
[5]
  Ratio: 32
[6]
  MIC: 0.25 µg/mL (≈ 0.379 µM)
[7]
  MIC: 0.25 µg/mL (≈ 0.379 µM)
[8]
  MIC: 0.5 µg/mL (≈ 0.759 µM)
[9]
  MIC: 0.12 µg/mL (≈ 0.182 µM)
[10]
  MIC: 0.5 µg/mL (≈ 0.759 µM)
[15]
  Ratio: 32
[11]
  MIC: 4 µg/mL (≈ 6.07 µM)
[12]
  MIC: 0.5 µg/mL (≈ 0.759 µM)
[13]
  MIC: 0.25 µg/mL (≈ 0.379 µM)
[14]
  MIC: 0.5 µg/mL (≈ 0.759 µM)

## CC(C)NC(=N)c1ccc2[nH]c(-c3ccc(Oc4ccc(-c5nc6cc(C(=N)NC(C)C)ccc6[nH]5)c(Cl)c4)cc3)nc2c1
[1]
  MIC: 0.12 µg/mL (≈ 0.198 µM)
[2]
  MIC: 2 µg/mL (≈ 3.3 µM)
[3]
  MIC: 0.25 µg/mL (≈ 0.413 µM)
[4]
  MIC: ≤ 0.06 µg/mL
[6]
  MIC: ≤ 0.06 µg/mL
[7]
  MIC: 0.12 µg/mL (≈ 0.198 µM)
[8]
  MIC: ≤ 0.06 µg/mL
[9]
  MIC: ≤ 0.06 µg/mL
[10]
  MIC: 0.25 µg/mL (≈ 0.413 µM)
[11]
  MIC: 4 µg/mL (≈ 6.61 µM)
[12]
  MIC: 0.12 µg/mL (≈ 0.198 µM)
[13]
  MIC: ≤ 0.06 µg/mL
[14]
  MIC: 0.5 µg/mL (≈ 0.826 µM)
